According to the NIST ThermoML archive (doi:10.1021/je0499317):

Assay: excess molar enthalpy (molar enthalpy of mixing); xn = mol fraction of the nth substance listed
Details: 298.15 K, 101.33 kPa, Liquid

CCCCCCCCC#N [nonanenitrile] + CSCS(C)=O
Details	excess molar enthalpy [kcal/mol]
x2 = 0.01839	0.0199
x2 = 0.03954	0.0411
x2 = 0.08357	0.0801
x2 = 0.1186	0.108
x2 = 0.175	0.149
x2 = 0.2257	0.178
x2 = 0.2686	0.199
x2 = 0.3721	0.232
x2 = 0.3812	0.234
x2 = 0.4654	0.25
x2 = 0.5564	0.253
x2 = 0.6409	0.241
x2 = 0.779	0.195
x2 = 0.8417	0.155
x2 = 0.8806	0.126
x2 = 0.9058	0.106
x2 = 0.9564	0.0531
x2 = 0.9784	0.0266

CCCCCCCCCCCC#N [n-dodecanenitrile] + CSCS(C)=O
Details	excess molar enthalpy [kcal/mol]
x2 = 0.03008	0.0375
x2 = 0.03781	0.0476
x2 = 0.09203	0.107
x2 = 0.1008	0.114
x2 = 0.1789	0.178
x2 = 0.207	0.198
x2 = 0.2152	0.204
x2 = 0.3197	0.261
x2 = 0.3517	0.27
x2 = 0.5024	0.3
x2 = 0.5857	0.301
x2 = 0.7084	0.277
x2 = 0.8115	0.223
x2 = 0.8979	0.148
x2 = 0.9592	0.0667
x2 = 0.9865	0.0238

CCCCCCCCCCCCCC#N [tetradecanenitrile] + C[S+](C)[O-]
Details	excess molar enthalpy [kcal/mol]
x2 = 0.02407	0.0307
x2 = 0.06045	0.0671
x2 = 0.1219	0.133
x2 = 0.1415	0.154
x2 = 0.2193	0.219
x2 = 0.2527	0.244
x2 = 0.3063	0.279
x2 = 0.4181	0.323
x2 = 0.4877	0.339
x2 = 0.6186	0.345
x2 = 0.7619	0.311
x2 = 0.8716	0.229
x2 = 0.8962	0.201
x2 = 0.911	0.176
x2 = 0.9532	0.109
x2 = 0.9692	0.0793
x2 = 0.9809	0.0491

CCCCCCCCCCCCC#N [dodecanecarbonitrile] + C[S+](C)[O-]
Details	excess molar enthalpy [kcal/mol]
x2 = 0.02177	0.0197
x2 = 0.06754	0.0683
x2 = 0.09519	0.0952
x2 = 0.09988	0.104
x2 = 0.1229	0.124
x2 = 0.2202	0.211
x2 = 0.2575	0.237
x2 = 0.2709	0.244
x2 = 0.28	0.253
x2 = 0.4232	0.309
x2 = 0.5464	0.322
x2 = 0.6358	0.318
x2 = 0.7394	0.297
x2 = 0.7753	0.283
x2 = 0.8034	0.269
x2 = 0.8609	0.226
x2 = 0.9001	0.181
x2 = 0.9286	0.144
x2 = 0.9571	0.0958
x2 = 0.9821	0.0459

CCCCCC#N [hexanenitrile] + C[S+](C)[O-]
Details	excess molar enthalpy [kcal/mol]
x2 = 0.07452	0.0546
x2 = 0.09271	0.0665
x2 = 0.1474	0.1
x2 = 0.1952	0.125
x2 = 0.2583	0.154
x2 = 0.3135	0.174
x2 = 0.3528	0.185
x2 = 0.4343	0.201
x2 = 0.4908	0.207
x2 = 0.5806	0.205
x2 = 0.7154	0.181
x2 = 0.842	0.129
x2 = 0.8892	0.0984
x2 = 0.9559	0.0454
x2 = 0.9855	0.0149
